According to patent US4622387A, “8-methionine calcitonin” (Armour Pharmaceutical Co., priority 1985, dated 1986):
Where a SMILES comes first, the peptide text is derived from it. Bridges are numbered along the chain shown (N, C = ends).

How the values were obtained:
[1] = system: serum calcium concentration
Protocol: Biological Assay Of Calcitonin Analogs In Vivo
The biological potency of [8-methionine]salmon calcitonin was determined by comparing the reduction of serum calcium concentration which followed administration by graded doses of [Met^8 ]SCT and synthetic salmon calcitonin standard. Rats were divided into four groups of seven animals, and each group was assigned at random to a dose of standard or test solution. Low and high doses were chosen from the linear portion of the dose-response curve. For the salmon calcitonin standard, the values were 0.7 and 2.1 mcg. peptide/100 g. body weight (BW). This dose approximates 3 and 9 MU/100 g. BW. Peptides were given by subcutaneous injection (0.2 ml/100 g. BW) and blood was withdrawn 1 hour later for serum calcium determination. Sera are processed and analyzed within two hours of collection. Results were analyzed within two hours of collection.

[2] = system: serum calcium (hypocalcemic potency); conditions: Monikawa et al., Experientia 32(9), 1104-1106 (1976); cited from earlier work

Molecule: CSCC[C@H](NC(=O)[C@@H]1CSSC[C@H](N)C(=O)N[C@@H](CO)C(=O)N[C@@H](CC(N)=O)C(=O)N[C@@H](CC(C)C)C(=O)N[C@@H](CO)C(=O)N[C@@H]([C@@H](C)O)C(=O)N1)C(=O)N[C@@H](CC(C)C)C(=O)NCC(=O)N[C@@H](CCCCN)C(=O)N[C@@H](CC(C)C)C(=O)N[C@@H](CO)C(=O)N[C@@H](CCC(N)=O)C(=O)N[C@@H](CCC(=O)O)C(=O)N[C@@H](CC(C)C)C(=O)N[C@@H](Cc1c[nH]cn1)C(=O)N[C@@H](CCCCN)C(=O)N[C@@H](CC(C)C)C(=O)N[C@@H](CCC(N)=O)C(=O)N[C@H](C(=O)N[C@@H](Cc1ccc(O)cc1)C(=O)N1CCC[C@H]1C(=O)N[C@@H](CCCNC(=N)N)C(=O)N[C@H](C(=O)N[C@@H](CC(N)=O)C(=O)N[C@H](C(=O)NCC(=O)N[C@@H](CO)C(=O)NCC(=O)N[C@H](C(=O)N1CCC[C@H]1C(N)=O)[C@@H](C)O)[C@@H](C)O)[C@@H](C)O)[C@@H](C)O [[Met^8]SCT, [8-methionine]salmon calcitonin] (H-CSNLSTCMLGKLSQELHKLQTYPRTNTGSGTP-NH2; disulfide 1-7)
- biological potency ([1]; rat, in vivo, sc): 5500 IU/mg

Molecule: (1,7-α-L-aminosuberic acid)eel calcitonin
- hypocalcemic potency [2]: about 3400 Iu/mg

Molecule: CC(C)C[C@H](NC(=O)[C@H](CCCCN)NC(=O)CNC(=O)[C@H](CC(C)C)NC(=O)[C@@H](NC(=O)[C@@H]1CSSC[C@H](N)C(=O)N[C@@H](CO)C(=O)N[C@@H](CC(N)=O)C(=O)N[C@@H](CC(C)C)C(=O)N[C@@H](CO)C(=O)N[C@@H]([C@@H](C)O)C(=O)N1)C(C)C)C(=O)N[C@@H](CO)C(=O)N[C@@H](CCC(N)=O)C(=O)N[C@@H](CCC(=O)O)C(=O)N[C@@H](CC(C)C)C(=O)N[C@@H](Cc1c[nH]cn1)C(=O)N[C@@H](CCCCN)C(=O)N[C@@H](CC(C)C)C(=O)N[C@@H](CCC(N)=O)C(=O)N[C@H](C(=O)N[C@@H](Cc1ccc(O)cc1)C(=O)N1CCC[C@H]1C(=O)N[C@@H](CCCNC(=N)N)C(=O)N[C@H](C(=O)N[C@@H](CC(N)=O)C(=O)N[C@H](C(=O)NCC(=O)N[C@@H](CO)C(=O)NCC(=O)N[C@H](C(=O)N1CCC[C@H]1C(N)=O)[C@@H](C)O)[C@@H](C)O)[C@@H](C)O)[C@@H](C)O [standard salmon calcitonin, Salmon calcitonin]
- potency content of the standard ([1]; standard salmon calcitonin, independently determined): greater than 4,000 IU/mg

Molecule: eel calcitonin [synthetic eel calcitonin]
- hypocalcemic potency [2]: around 4300 Iu/mg
